# Experimental data from patent US20130287918A1, “MICROBICIDAL COMPOSITION” (DUPONT NUTRITION DIOSCIENCES APS, priority 2010, published 2013).
# How the values were obtained:
# [1] = test system: pool of 4 yeast species; experiment: Ranch dressing challenge study, yeast count on YGC agar; type: cell-based; settings: for Cell counts on YGC-agar to determine the yeast growth: 0.1% in Ranch dressing, inoculation 500 CFU/g, 20° C.
# Source text: Samples of the regular ranch dressing (formula in table 24) with and without the experimental blend were produced in the Danisco Culinary Application Laboratory, Brabrand.
# Each batch was split (scheme table 23) in probes of 90 gram and placed in sterile jars. 36 probes of each batch were inoculated with the desired level of yeast and 5 probes of each batch were inoculated with mould spores, respectively at a targeted inoculation rate of 500 to 1000 CFU/g.
# (§1) The viscous products were thoroughly mixed (2 minutes) within 10 minutes of inoculation to ensure that the inoculum was evenly distributed throughout the product. One sample remained un-inoculated and was used as negative control to monitor the native contamination flora. All samples were incubated at ambient temperature (20° C.) and assayed for yeast, plated on an appropriate yeast medium, until confirmed failure (≧1.0E+05 CFU/g) or until visible mould growth, respectively. In parallel, the growth of lactic acid bacteria and total cell count were monitored on MRS and PCA in all the batches and the non-inoculated blind, respectively.
# In total 8 strains, from Danisco's in-house Culture Collection (DCS) (Danisco A/S, Brabrand, Denmark) were employed as 1 yeast and 1 mould pool in the respective Ranch dressing. Originally, they were isolated e.g. from spoiled ketchup, mayonnaise, Salsa dressing or obtained from official culture collections such as DMSZ.
# Before each experiment, a stock culture of each yeast, maintained at −86° C. in suitable broth containing glycerol 50% (v/v), was propagated through two consecutive growth cycles in suitable media (YGC-agar (VWR) pH 5.1+0.2; YM Broth (Becton, Dickinson and company) at pH 6.0±0.2 at and temperature (25° C.). The overnight cultures are diluted in saline solution to obtain working cultures. A cocktail of the yeasts was generated by adding equal cell counts of each culture into a sterile container and mixed appropriately. The yeast cocktail was diluted and inoculated into the product in order to achieve the final desired concentration. Pool counts were verified via plate count. Mould spores were prepared as follows: approx. 2 ml of sterile demineralised water was used to wash the spores off an out-grown mould cultivar (minimum 5 day old plate). This suspension is transferred to a sterile container. Pool counts were verified via plate count.
# The Ranch dressing was assayed a time zero, day 3, day 7, day 14, bi-weekly thereafter until week 13 (day 90) and every 4 to 6 weeks until week 29. CFU/g was detected for 3 samples from each batch inoculated with yeast. Before each sampling (closed jar), the sample was thoroughly mixed. 10 gram sample were aseptically pulled from each jar and diluted with peptone water. Each sample was stomached (1 min, normal setting) plated in duplicate onto YGC agar (VWR), PC agar and MRS agar (VWR), and incubated at 25° C. for 5 and 7 days and 37° C. for 3 days, respectively.
# [2] = test system: native flora of Lactic acid bacteria; experiment: Salsa sauce fresh challenge study, native lactic acid bacteria on MRS-agar; type: cell-based; settings: for Cell counts on MRS-agar (native Lactic acid bacteria): Salsa sauce 4° C., FP1000-D1 1%, FP1000-D2 1%, MG200 1%, Potassium Sorbate 0.1%
# Description: as §1, with “incubated in the dark” for “incubated”, “chilled” for “ambient”, “(4°” for “(20°”, “(≧1.0E+06” for “(≧1.0E+05”
# The Salsa sauces were assayed at time zero, day 3, day 7, day 14 and were plated bi-weekly thereafter until day 92. CFU/g was detected for 3 samples from each batch inoculated with yeast. Before each sampling (closed jar), the sample was thoroughly mixed, 10 gram sample were aseptically pulled from each jar and diluted with peptone water. Each sample was stomached (1 min, normal setting) plated in duplicate onto YGC agar (VWR) and MRS (VWR), and incubated at 25° C. for 5 days and 37° C. for 3 days, respectively.
# [3] = Ranch dressing challenge study, pH measurement; type: physicochemical; settings: 0.1%, non-inoculated sample
# Source text: A pH measurement of non-inoculated sample material took place at every sampling date using a Mettler Toledo Seven Easy pH meter.
structure (smiles),measurement,setting,value
"C/C=C/C=C/C(=O)[O-].[K+] [Potassium Sorbate, potassium sorbate]",initial reduction of the inoculated cell load,"[1]; Ranch dressing 20° C., FP1000 D1/D2 1%, MicroGARD 200 1%, potassium sorbate 0.1%",2 log
same,Cell counts on YGC-agar to determine the yeast growth,[1]; day 0,3.20E+02 CFU/g
same,Cell counts on YGC-agar to determine the yeast growth,[1]; day 3,1.70E+02 CFU/g
same,Cell counts on YGC-agar to determine the yeast growth,[1]; day 7,7.50E+01 CFU/g
same,Cell counts on YGC-agar to determine the yeast growth,[1]; day 14,1.00E+01 CFU/g
same,Cell counts on YGC-agar to determine the yeast growth,[1]; day 28,1.00E+01 CFU/g
same,Cell counts on YGC-agar to determine the yeast growth,[1]; day 42,1.00E+01 CFU/g
same,Cell counts on YGC-agar to determine the yeast growth,[1]; day 56,1.00E+01 CFU/g
same,Cell counts on YGC-agar to determine the yeast growth,[1]; day 64,1.00E+01 CFU/g
same,Cell counts on YGC-agar to determine the yeast growth,[1]; day 90,1.00E+01 CFU/g
same,Cell counts on YGC-agar to determine the yeast growth,[1]; day 157,1.00E+01 CFU/g
same,Cell counts on YGC-agar to determine the yeast growth,[1]; day 198,1.00E+01 CFU/g
same,time after which no more colonies were detected on MRS-agar,"[2]; Salsa sauce, potassium sorbate 0.1%",42 days
same,Cell counts on MRS-agar (native Lactic acid bacteria),[2]; day 0,4.75E+02
same,Cell counts on MRS-agar (native Lactic acid bacteria),[2]; day 2,1.50E+03
same,Cell counts on MRS-agar (native Lactic acid bacteria),[2]; day 5,1.40E+02
same,Cell counts on MRS-agar (native Lactic acid bacteria),[2]; day 7,1.30E+03
same,Cell counts on MRS-agar (native Lactic acid bacteria),[2]; day 14,5.38E+02
same,Cell counts on MRS-agar (native Lactic acid bacteria),[2]; day 28,4.30E+01
same,Cell counts on MRS-agar (native Lactic acid bacteria),[2]; day 41,<1.00E+01
same,Cell counts on MRS-agar (native Lactic acid bacteria),[2]; day 55,<1.00E+01
same,Cell counts on MRS-agar (native Lactic acid bacteria),[2]; day 93,<1.00E+01
same,pH development of the Ranch dressing batch,[3]; day 0,4.02
same,pH development of the Ranch dressing batch,[3]; day 3,4.00
same,pH development of the Ranch dressing batch,[3]; day 7,4.02
same,pH development of the Ranch dressing batch,[3]; day 14,4.00
same,pH development of the Ranch dressing batch,[3]; day 28,3.94
same,pH development of the Ranch dressing batch,[3]; day 42,3.96
same,pH development of the Ranch dressing batch,[3]; day 56,3.96
same,pH development of the Ranch dressing batch,[3]; day 64,3.95
same,pH development of the Ranch dressing batch,[3]; day 90,3.96
same,pH development of the Ranch dressing batch,[3]; day 157,3.92
same,pH development of the Ranch dressing batch,[3]; day 198,3.94
